# Experiments:
# [1] = tested on: A549 tumor-bearing nude mice; assay: In vivo fluorescence activation in tumor; set-up: species or system Balb/c nude mice; details: 6 h post-injection; intratumoral, 20 nmol in 20 μL water with 7.5% DMSO and 0.5% Tween 80; excitation 680 nm, emission ≥700 nm; n = 4
# Method: The in vivo activation of 1 in terms of fluorescence emission was further investigated using A549 tumor-bearing nude mice as the animal model and the non-cleavable analogue 14 as the negative control. […] The fluorescence intensity per unit area of the tumor was also determined at different time points for both conjugates (Figure 7b). […] At 6 h post-injection, the intensity of 1 was 4.3-fold higher than that of 14, showing that the former could be activated through enzymatic cleavage of the two peptide segments by the intrinsic MMP-2 and cathepsin B in the tumor, while the latter remained largely quenched due to its non-cleavable nature. […]
# taken by a microplate reader (Tecan Spark 10M) at ambient temperature. The average […]
# of the other wells. The cell viability was then determined by the equation: […]
# where Ai is the absorbance of the ith datum (i = 1, 2, …, n), Acontrol is the average absorbance of the control wells in which the compound was absent, and n (= 4) is the number of data points.
# Female Balb/c nude mice (20–25 g) were obtained from the Laboratory Animal Services Centre at The Chinese University of Hong Kong. […] In vivo fluorescence imaging was performed before and after […]
# A549 tumor-bearing nude mice were prepared as described above. The length and width of the tumor were measured using a micrometer digital caliper (SCITOP Systems). […]
# cathepsin B = cathepsin B (Homo sapiens, UniProt P07858); assay: Cathepsin B-responsive fluorescence activation; assay type: biochemical; details: 1 μM, cathepsin B only (1 unit mL-1), pH 5.0 buffer, 0.1% Tween 80, 37 °C
# Method: To examine the response of PMB 1 toward MMP-2 and cathepsin B, its absorption and fluorescence spectra were monitored in the presence of these stimuli at 37 °C over a period of 25 h, using the non-cleavable analogue 14 as the negative control. For studying the MMP-2-responsive effect, MMP-2 (2 μg mL^–1) in PBS at pH 7.4 was used to mimic the high serum levels of this enzyme in patients with cancer.[68] The effect of cathepsin B (using a concentration of 1 unit mL^–1) was studied in the working buffer mentioned above at pH 5.0 to mimic the lysosomal environment.[69] […] Similar results were obtained for the study using cathepsin B in the buffer (Figure S8e–h). […] The more flexible ring-opening structure, however, might slightly increase the separation of the two moieties, leading to a lower FRET efficiency,[70] which could explain the small increase in fluorescence intensity. […] As expected, both the absorption and fluorescence spectra were not changed toward these two enzymes (Figure S9).
# The fluorescence recovery was then determined for 1 under the aforementioned conditions, assuming that the fluorescence intensity of 8 at the same concentration in the same medium was the maximum fluorescence intensity that could be recovered. […]
# All of the solutions were stirred continuously at 37 °C. The ir electronic absorption and fluorescence spectra were monitored over a period of 25 h. […]
smiles,measurement,setting,value
CCN(CC)c1ccc2nc3ccc(/N=N/c4ccc(N(C)CCCNC(=O)OC[C@@H]5[C@@H]6CCc7nnn(CC(=O)NCCCC[C@@H]8NC(=O)CNC(=O)[C@H](CCCCN)NC(=O)[C@H](CCCNC(=N)N)NC(=O)[C@H](C(C)C)NC(=O)CNC(=O)[C@H](CC(C)C)NC(=O)[C@@H]9CCCN9C(=O)[C@H](CCCCN)NC(=O)[C@@H](N)CSCc9cc(COc%10ccc(C%11=C%12C(C)=C(I)C(/C=C/c%13ccc(OCCOCCOCCOC)cc%13)=[N+]%12[B-](F)(F)n%12c(/C=C/c%13ccc(OCCOCCOCCOC)cc%13)c(I)c(C)c%12%11)cc%10)cc(c9)CSC[C@@H](C(N)=O)NC(=O)[C@H](CCCCN)NC(=O)[C@H](CCCCN)NC(=O)CNC(=O)[C@H](CC(C)C)NC(=O)[C@H](Cc9ccccc9)NC(=O)CNC(=O)[C@H](CCCCN)NC(=O)CNC8=O)c7CC[C@@H]65)cc4)cc3[n+](-c3ccccc3)c2c1 [compound 1],tumoral fluorescence intensity relative to that of 14,[1],4.3 fold
same,on/off ratio (fluorescence intensity at 25 h / initial intensity),cathepsin B,ca. 2.7
